From US10173991B2, “Sulfone amide linked benzothiazole inhibitors of endothelial lipase” (BRISTOL-MYERS SQUIBB COMPANY, priority 2014, dated 2019)
pIC50: −log10 of the molar value.

biological target: Endothelial lipase (EL) (Homo sapiens (Human), UniProt Q9Y5X9); assay: Endothelial lipase (EL) enzymatic assay with fluorescent substrate A10070 in DMPG vesicles; format: biochemical; conditions: not given
Outline: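 Substrate A10070 sits in sonicated DMPG vesicles at 0.11 mole fraction. Lipase and compound preincubated 30 min, 37° C, in HEPES pH 8.0 buffer with CaCl2.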

Sequence of Endothelial lipase (EL) (Q9Y5X9 21-500): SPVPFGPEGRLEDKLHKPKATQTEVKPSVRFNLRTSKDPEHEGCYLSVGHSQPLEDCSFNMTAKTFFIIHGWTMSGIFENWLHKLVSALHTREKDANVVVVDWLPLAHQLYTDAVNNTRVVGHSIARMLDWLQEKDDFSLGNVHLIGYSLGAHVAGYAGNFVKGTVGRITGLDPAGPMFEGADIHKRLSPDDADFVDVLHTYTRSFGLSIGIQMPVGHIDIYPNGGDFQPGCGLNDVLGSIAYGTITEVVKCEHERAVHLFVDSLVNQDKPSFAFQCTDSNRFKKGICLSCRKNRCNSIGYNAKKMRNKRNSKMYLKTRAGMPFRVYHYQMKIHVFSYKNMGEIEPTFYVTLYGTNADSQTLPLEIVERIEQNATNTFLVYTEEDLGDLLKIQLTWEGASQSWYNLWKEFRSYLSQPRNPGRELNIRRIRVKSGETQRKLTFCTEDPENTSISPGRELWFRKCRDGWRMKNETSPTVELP

pIC50 | SMILES
8.30 | Cc1nc2cc(-c3cc4sc(C(C(=O)NCC(=O)NC5CC5)S(=O)(=O)C(C)C)nc4cc3F)ccc2s1 (stereo not drawn) [Example 238, N-[(cyclopropyl-carbamoyl)methyl]-2-[5-fluoro-6-(2-methyl-1,3-benzothiazol-5-yl)-1,3-benzothiazol-2-yl]-2-(propane-2-sulfonyl)acetamide]
8.05 | CS(=O)(=O)C(C(=O)NCC(=O)NC1CC1)c1nc2cc(F)c(-c3ccc(NC(=O)OCC4CC4)cc3)cc2s1 (stereo not drawn) [Example 527, cyclopropylmethyl N-{4-[2-({[(cyclopropyl-carbamoyl)methyl]carbamoyl}) (methanesulfonyl)methyl)-5-fluoro-1,3-benzothiazol-6-yl]phenyl} carbamate]
7.17 | O=C(CNC(=O)C(c1nc2c(F)cc(-c3ccc4c(c3)C(=O)NC4)cc2s1)S(=O)(=O)c1ccc(F)cc1)NC1CC1 (stereo not drawn) [Example 477, N-[(cyclopropyl-carbamoyl)methyl]-2-[4-fluoro-6-(3-oxo-2,3-dihydro-1H-isoindol-5-yl)-1,3-benzothiazol-2-yl]-2-(4-fluorobenzene-sulfonyl)acetamide]
8.40 | COCCS(=O)(=O)C(C(=O)NCC(=O)NC1CC1)c1nc2cc(F)c(-c3cccc(NC(=O)OCc4ccccc4)c3)cc2s1 (stereo not drawn) [Example 549, benzyl N-{3-[2-({[(cyclopropyl-carbamoyl)methyl]carbamoyl}(2-methoxyethane-sulfonyl)methyl)-5-fluoro-1,3-benzothiazol-6-yl]phenyl} carbamate]
7.54 | O=C(CNC(=O)C(c1nc2ccc(-c3ccc(F)nc3)cc2s1)S(=O)(=O)CCC(F)(F)F)NC1CC1 (stereo not drawn) [Example 56, N-[(cyclopropyl-carbamoyl)methyl]-2-[6-(6-fluoropyridin-3-yl)-1,3-benzothiazol-2-yl]-2-(3,3,3-trifluoropropane-sulfonyl)acetamide]
7.34 | N#Cc1cccc(CS(=O)(=O)C(C(=O)NCC(=O)NC2CC2)c2nc3ccc(-c4ccc(F)nc4)cc3s2)c1 (stereo not drawn) [Example 20, 2-[(3-cyanophenyl)methanesulfonyl]-N-[(cyclopropyl-carbamoyl)methyl]-2-[6-(6-fluoropyridin-3-yl)-1,3-benzothiazol-2-yl]acetamide]
9.00 | O=C(CNC(=O)C(c1nc2cc(F)c(-c3cccc(NC(=O)OCc4ccccc4)c3)cc2s1)S(=O)(=O)C1CC1)NC1CC1 (stereo not drawn) [Example 555, benzyl N-(3-{2-[(cyclopropane-sulfonyl) ({[(cyclopropyl-carbamoyl)methyl]carbamoyl})methyl]-5-fluoro-1,3-benzothiazol-6-yl}phenyl) carbamate]
7.72 | COCCS(=O)(=O)C(C(=O)NCC(=O)NC1CC1)c1nc2cc(-c3ccc(F)nc3F)ccc2s1 (stereo not drawn) [Example 68, N-[(cyclopropyl-carbamoyl)methyl]-2-[5-(2,6-difluoropyridin-3-yl)-1,3-benzothiazol-2-yl]-2-(2-methoxyethane-sulfonyl) acetamide]
7.64 | CC(=O)Nc1cccc(-c2ccc3nc(C(C(=O)NCC(=O)NC4CC4)S(C)(=O)=O)sc3c2)c1 (stereo not drawn) [Example 111, N-[(cyclopropyl-carbamoyl)methyl]-2-[6-(3-acetamidophenyl)-1,3-benzothiazol-2-yl]-2-methanesulfonyl-acetamide]
7.43 | Cc1cc(-c2cc3sc(C(C(=O)NCC(=O)NC4CC4)S(=O)(=O)c4cccc(Cl)c4)nc3cc2F)cnn1 (stereo not drawn) [Example 443, 2-(3-chlorobenzene-sulfonyl)-N-[(cyclopropyl-carbamoyl)methyl]-2-[5-fluoro-6-(6-methylpyridazin-4-yl)-1,3-benzothiazol-2-yl}acetamide]
7.41 | Cc1ncc(-c2ccc3nc(C(C(=O)NCC(=O)NC4CC4)S(=O)(=O)c4ccc(F)cc4)sc3c2)cn1 (stereo not drawn) [Example 452, N-[(cyclopropyl-carbamoyl)methyl]-2-(4-fluorobenzene-sulfonyl)-2-[6-(2-methylpyrimidin-5-yl)-1,3-benzothiazol-2-yl]acetamide]
7.59 | COCCS(=O)(=O)C(C(=O)NCC(=O)NC1CC1)c1nc2c(F)cc(-c3ccc(C(F)(F)F)nc3)cc2s1 (stereo not drawn) [Example 217, N-[(cyclopropyl-carbamoyl)methyl]-2-{4-fluoro-6-[6-(trifluoromethyl)pyridin-3-yl]-1,3-benzothiazol-2-yl}-2-(2-methoxyethane-sulfonyl) acetamide]
9.00 | O=C(CNC(=O)C(c1nc2cc(-c3ccc(NC(=O)OCc4ccccc4)cc3)c(F)cc2s1)S(=O)(=O)CCC(F)(F)F)NC1CC1 (stereo not drawn) [Example 9, benzyl N-{4-[2-({[(cyclopropyl-carbamoyl)methyl]carbamoyl} (3,3,3-trifluoro-propanesulfonyl)methyl)-6-fluoro-1,3-benzothiazol-5-yl]phenyl} carbamate]
8.05 | CC(C)S(=O)(=O)C(C(=O)NCC(=O)NC1CC1)c1nc2c(F)cc(-c3ccc4cnn(C)c4c3)cc2s1 (stereo not drawn) [Example 281, N-[(cyclopropyl-carbamoyl)methyl]-2-[4-fluoro-6-(1-methyl-1H-indazol-6-yl)-1,3-benzothiazol-2-yl]-2-(propane-2-sulfonyl)acetamide]
7.96 | Cc1cc2nc(C(C(=O)NCC(=O)NC3CC3)S(=O)(=O)C(C)C)sc2cc1-c1ccc(C(F)(F)F)nc1 (stereo not drawn) [Example 209, N-[(cyclopropyl-carbamoyl)methyl]-2-{5-methyl-6-[6-(trifluoromethyl)pyridin-3-yl]-1,3-benzothiazol-2-yl}-2-(propane-2-sulfonyl) acetamide]
8.70 | COCCS(=O)(=O)C(C(=O)NCC(=O)NC1CC1)c1nc2cc(Cl)c(-c3ccc(NC(=O)OC)cc3)cc2s1 (stereo not drawn) [Example 94, methyl N-{4-[5-chloro-2-({[(cyclopropyl-carbamoyl)methyl]carbamoyl}(2-methoxyethane-sulfonyl)methyl)-1,3-benzothiazol-6-yl]phenyl} carbamate]
7.43 | CC(C)n1cc(-c2cc3sc(C(C(=O)NCC(=O)NC4CC4)S(=O)(=O)C(C)C)nc3cc2F)ccc1=O (stereo not drawn) [Example 22, N-[(cyclopropyl-carbamoyl)methyl]-2-{5-fluoro-6-[6-oxo-1-(propan-2-yl)-1,6-dihydropyridin-3-yl]-1,3-benzothiazol-2-yl}-2-(propane-2-sulfonyl) acetamide]
8.30 | CC(=O)NCc1ccc(-c2cc3sc(C(C(=O)NCC(=O)NC4CC4)S(=O)(=O)c4cccc(Cl)c4)nc3cc2F)cc1 (stereo not drawn) [Example 444, 2-(3-chlorobenzene-sulfonyl)-N-[(cyclopropyl-carbamoyl)methyl]-2-{6-[4-(acetamidomethyl)phenyl]-5-fluoro-1,3-benzothiazol-2-yl}acetamide]
7.96 | COCCS(=O)(=O)C(C(=O)NCC(=O)NC1CC1)c1nc2ccc(-c3ccc(C(=O)N4CCO[C@@H](C)C4)cc3)cc2s1 (stereo partly drawn) [Example 562, N-[(cyclopropyl-carbamoyl)methyl]-2-(2-methoxyethane-sulfonyl)-2-(6-{4-[(2S)-2-methyl-morpholine-4-carbonyl]phenyl}-1,3-benzothiazol-2-yl)acetamide]
7.70 | COC(=O)Nc1ccc(-c2ccc3nc(C(C(=O)NCC(=O)NC4CC4)S(C)(=O)=O)sc3c2)c(C)c1 (stereo not drawn) [Example 29, methyl N-{4-[2-({[(cyclopropyl-carbamoyl)methyl]carbamoyl} (methanesulfonyl)methyl)-1,3-benzothiazol-6-yl]-3-methylphenyl} carbamate]
7.96 | Cc1cc(-c2cc3sc(C(C(=O)NCC(=O)NC4CC4)S(=O)(=O)C(C)C)nc3cc2C)cnn1 (stereo not drawn) [Example 257, N-[(cyclopropyl-carbamoyl)methyl]-2-[5-methyl-6-(6-methylpyridazin-4-yl)-1,3-benzothiazol-2-yl]-2-(propane-2-sulfonyl) acetamide]
7.74 | COCCS(=O)(=O)C(C(=O)NCC(=O)NC1CC1)c1nc2cc(-c3ccc4c(c3)C(=O)NC4)c(F)cc2s1 (stereo not drawn) [Example 350, N-[(cyclopropyl-carbamoyl)methyl]-2-[6-fluoro-5-(3-oxo-2,3-dihydro-1H-isoindol-5-yl)-1,3-benzothiazol-2-yl]-2-(2-methoxyethane-sulfonyl)acetamide]
7.38 | COCCS(=O)(=O)C(C(=O)NCC(=O)NC1CC1)c1nc2cc(-c3ccc4c(c3)CC(=O)N4)c(F)cc2s1 (stereo not drawn) [Example 349, N-[(cyclopropyl-carbamoyl)methyl]-2-[6-fluoro-5-(2-oxo-2,3-dihydro-1H-indol-5-yl)-1,3-benzothiazol-2-yl]-2-(2-methoxyethane-sulfonyl)acetamide]

same assay, conditions: EL from conditioned media of HT-1080 cells; 30 min preincubation at 37° C.

pIC50 | SMILES
7.66 | O=C(CNC(=O)C(c1nc2cc(F)c(-c3ccc(F)nc3)cc2s1)S(=O)(=O)CCN1CCOCC1)NC1CC1 (stereo not drawn) [Example 421, N-[(Cyclopropylcarbamoyl)methyl]-2-[5-fluoro-6-(6-fluoropyridin-3-yl)-1,3-benzothiazol-2-yl]-2-[2-(morpholin-4-yl)ethanesulfonyl]acetamide]
8.55 | O=C(CNC(=O)C(c1nc2cc(F)c(-c3ccc(C(=O)NCCc4ccccc4)cc3)cc2s1)S(=O)(=O)CCC(F)(F)F)NC1CC1 (stereo not drawn) [Example 572, 4-[2-({[(Cyclopropylcarbamoyl)methyl]carbamoyl}(3,3,3-trifluoropropanesulfonyl)methyl)-5-fluoro-1,3-benzothiazol-6-yl]-N-(2-phenylethyl)benzamide]
6.55 | O=C(CNC(=O)C(c1nc2ccc(-c3ccc(F)nc3)cc2s1)S(=O)(=O)CCO)NC1CC1 (stereo not drawn) [Example 509, N-[(Cyclopropylcarbamoyl)methyl]-2-[6-(6-fluoropyridin-3-yl)-1,3-benzothiazol-2-yl]-2-(2-hydroxyethanesulfonyl)acetamide]

SMILES | pIC50
COCCNC(=O)CNC(=O)C(c1nc2ccc(-c3ccc4c(c3)CN(C3CC3)C4=O)cc2s1)S(=O)(=O)c1ccc(F)cc1 (stereo not drawn) [Example 595, 2-(6-(2-Cyclopropyl-1-oxoisoindolin-5-yl)benzo[d]thiazol-2-yl)-2-((4-fluorophenyl)sulfonyl)-N-(2-((2-methoxyethyl)amino)-2-oxoethyl)] | 7.62
